# Assay results taken from paper PMC9751883, “Discovery of new potent lysine specific histone demythelase-1 inhibitors (LSD-1) using structure based and ligand based molecular modelling and machine learning” (RSC Advances, 2022).
# Columns and labels:
# [1] = tested on: normal human dermal fibroblasts (HDF); assay: cytotoxicity against normal human dermal fibroblasts; assay type: cell-based; conditions: for SI: selectivity index in comparison with SH-SY5Y cells, HDF: HDF vs SH-SY5Y
# Source text: However, testing against HDF is aimed at evaluating the selective cytotoxicities of hits.
# [2] = tested on: glioblastoma U-87 MG cells; assay: MTT cytotoxicity against U-87 MG cells; assay type: cell-based
# Method: (§1) The anticancer effects of captured hits were evaluated against SH-SY5Y (Neuroblastoma, CRL-2266), Panc-1 (pancreatic carcinoma, CRL-1469) and U-87 MG (glioblastoma, HTB-14) cells. Details about growth conditions, cell harvesting and counting are available in ESI Sections SM12–SM14. ^† The cancer killing profiles of tested compounds were evaluated colorimetrically using the Cell Titer Non-Radioactive Cell Proliferation Assay Kit® (Promega, USA) based on the reduction of a yellow tetrazole, 3-(4,5-Dimethylthiazol-2-yl)-2, 5-diphenyl tetrazolium bromide (MTT), to a purple formazan, a process that takes place in the mitochondria of viable cells (details are in ESI Sections SM12–SM14 ^†).[98,99]
# (§2) Panc-1 and U-87 MG cells were used to probe LSD-1 inhibition by candidate inhibitors.[119,120] However, testing against HDF is aimed at evaluating the selective cytotoxicities of hits.
# [3] = tested on: pancreatic carcinoma Panc-1 cells; assay: MTT cytotoxicity against Panc-1 cells; assay type: cell-based; conditions: for SI: selectivity index in comparison with SH-SY5Y cells, Panc-1: Panc-1 vs SH-SY5Y
# Method: as §1, §2
# [4] = target: T1, LSD-1 (Homo sapiens, UniProt O60341); assay: fluorometric LSD-1 enzymatic assay (Cayman kit); assay type: biochemical; conditions: for IC50: read-out: IC50 LSD-1 enzyme
# T1 construct: purchased Cayman Chemical-USA 700120
# Method: Briefly, the assay is based on a multistep enzymatic reaction in which LSD-1 first produces H2O2 during the demethylation of lysine 4 on a peptide corresponding to the first 21 amino acids of the N-terminal tail of histone H3. In the presence of horseradish peroxidase (HRP), H2O2 reacts with ADHP (10-acetyl-3,7-dihydroxyphenoxazine) to produce the highly fluorescent compound resorufin. Resorufin fluorescence was analysed with an excitation wavelength 530–540 nm and an emission wavelength of 585–595 nm. […] The procedure proceeds through the following steps: (i) prepare 100% initial activity wells by adding 120 μl of assay buffer, 20 μl of LSD1, 20 μl of HRP, 10 μl of ADHP, and 10 μl of DMSO to three wells. […] (iv) Initiate the reactions by adding 20 μl of substrate peptide to all the wells being used, except the background wells. (v) Cover the plate with the plate cover and incubate for 30 minutes at 37 °C. (vi) Remove the plate cover and read the plate using an excitation wavelength of 530–540 nm and an emission wavelength of 585–595 nm. (vii) Determine the average fluorescence of each sample. (viii) Subtract the fluorescence of the background wells from the fluorescence of the 100% initial activity and the inhibitor wells. (ix) Determine the percent inhibition for each sample. To do this, subtract each inhibitor sample value from the 100% initial activity sample value.
Compound,% Inhibition at 10 μM HDF [1] [%],% Inhibition at 10 μM U-87 MG [2] [%],% Inhibition at 10 μM Panc-1 [3] [%],% Inhibition at 10 μM LSD-1 enzyme [4] [%],IC50 [1] [µM],"SI: selectivity index in comparison with SH-SY5Y cells, HDF [1]",IC50 [2] [µM],"SI: selectivity index in comparison with SH-SY5Y cells, U-87 MG ([2]; U-87 MG vs SH-SY5Y)",IC50 [3] [µM],"SI: selectivity index in comparison with SH-SY5Y cells, Panc-1 [3]",HS (hill Slope) LSD-1 enzyme [4],IC50 [4] [µM]
O=C(NCCCCCCCCCCNC(=O)Nc1cccc(C2=NCCN2)c1)Nc1cccc(C2=NCCN2)c1 [Cpd 285],31,0,3,18,–,–,–,–,–,–,–,–
CCCCOCCCNCC(=O)Nc1ccc(S(=O)(=O)c2ccc(NC(=O)CNCCCOCCCC)cc2)cc1 [Cpd 287],7,15,39,96,–,–,–,–,–,–,–,–
N=C(N)c1ccc(OCCCCCCOc2ccc(C(=N)N)cc2)cc1 [Cpd 288],35,47,41,18,–,–,–,–,–,–,–,–
COc1cccc2c1C(=O)c1c(O)c3c(c(O)c1C2=O)CC(O)(C(C)=NNC(=O)CO)CC3OC1CC(N)C(O)C(C)O1 (centres unmarked) [Cpd 298],69,81,93,78,3.06,102,0.92,30.6,0.74,24.6,0.36,0.21
N=C(N)c1ccc(OCCCCCCOc2ccc(C(=N)N)cc2I)cc1 [Cpd 304],68,64,73,88,5.73,15.48,7.27,–,3.85,2.6,0.70,0.61
